{"source": "EPA's aquatic toxicity sets", "data": [{"system": "Pimephales promelas", "assay": "96 h LC50 (-log10 mol/L); higher = more toxic", "values": [{"smiles": "COc1ccc(OC)c(C(=O)CBr)c1", "96 h LC50 (-log10 mol/L)": 6.65}, {"smiles": "C=C1[C@H]2CC[C@@H]3[C@H]2C(C)(C)CCC[C@]13C", "96 h LC50 (-log10 mol/L)": 4.3}, {"smiles": "CCCCN", "96 h LC50 (-log10 mol/L)": 2.44}, {"smiles": "O=C(O)[C@@H]1[C@H](C(=O)O)[C@H]2CC[C@@H]1O2", "96 h LC50 (-log10 mol/L)": 4.08}, {"smiles": "CCCCC(=O)CCCC", "96 h LC50 (-log10 mol/L)": 3.66}, {"smiles": "O=[N+]([O-])c1ccc(O)cc1C(F)(F)F", "96 h LC50 (-log10 mol/L)": 4.51}, {"smiles": "OC(c1ccc(Cl)cc1)(c1ccc(Cl)cc1)C(Cl)(Cl)Cl", "96 h LC50 (-log10 mol/L)": 5.86}, {"smiles": "CC(C)=CCC/C(C)=C/CN(C/C=C(\\C)CCC=C(C)C)CCO", "96 h LC50 (-log10 mol/L)": 6.41}, {"smiles": "c1ccc(Nc2ccccc2)cc1", "96 h LC50 (-log10 mol/L)": 4.65}, {"smiles": "CS(=O)(=O)Oc1ccc(Cl)cc1Cl", "96 h LC50 (-log10 mol/L)": 4.74}, {"smiles": "O=Cc1cccc(C(F)(F)F)c1", "96 h LC50 (-log10 mol/L)": 5.28}, {"smiles": "CCCCCCC(C)N", "note": "(stereo not drawn)", "96 h LC50 (-log10 mol/L)": 4.4}, {"smiles": "CCOC(=O)/C=C/C(=O)OCC", "96 h LC50 (-log10 mol/L)": 4.58}, {"smiles": "CC(C)(C)CN", "96 h LC50 (-log10 mol/L)": 2.26}, {"smiles": "BrC(Br)c1ccccc1C(Br)Br", "96 h LC50 (-log10 mol/L)": 5.99}, {"smiles": "O=C1C2CC=CCC2C(=O)N1SC(Cl)(Cl)Cl", "note": "(stereo not drawn)", "96 h LC50 (-log10 mol/L)": 6.35}, {"smiles": "ClC1C(Cl)C(Cl)C(Cl)C(Cl)C1Cl", "note": "(stereo not drawn)", "96 h LC50 (-log10 mol/L)": 6.61}, {"smiles": "Cc1nnc(N)nc1C", "96 h LC50 (-log10 mol/L)": 2.12}, {"smiles": "O=C(O)c1c(Cl)ccc(Cl)c1Cl", "96 h LC50 (-log10 mol/L)": 4.42}, {"smiles": "Cc1ccc([N+](=O)[O-])c(N)c1[N+](=O)[O-]", "96 h LC50 (-log10 mol/L)": 4.21}, {"smiles": "COc1ccc(OC)cc1", "96 h LC50 (-log10 mol/L)": 3.07}, {"smiles": "CC(=O)C(C)CN(C)C", "note": "(stereo not drawn)", "96 h LC50 (-log10 mol/L)": 4.18}, {"smiles": "CCOP(=S)(OCC)SCCSCC", "96 h LC50 (-log10 mol/L)": 4.85}, {"smiles": "CC(C)C(C(=O)OC(C#N)c1cccc(Oc2ccccc2)c1)c1ccc(Cl)cc1", "note": "(stereo not drawn)", "96 h LC50 (-log10 mol/L)": 8.14}, {"smiles": "Nc1ccc([N+](=O)[O-])cc1Cl", "96 h LC50 (-log10 mol/L)": 3.93}, {"smiles": "Brc1ccccc1Br", "96 h LC50 (-log10 mol/L)": 4.76}, {"smiles": "Clc1cccc(C(Cl)(Cl)Cl)n1", "96 h LC50 (-log10 mol/L)": 4.37}, {"smiles": "CCC(=O)c1ccc(N)cc1", "96 h LC50 (-log10 mol/L)": 3.01}, {"smiles": "Oc1c(Cl)cc(Cl)c(Cl)c1Cc1c(O)c(Cl)cc(Cl)c1Cl", "96 h LC50 (-log10 mol/L)": 7.29}, {"smiles": "Oc1cc(Cl)c(Cl)cc1O", "96 h LC50 (-log10 mol/L)": 5.3}, {"smiles": "C1C2CC3CC1CC(C2)C3", "96 h LC50 (-log10 mol/L)": 5.68}, {"smiles": "O=Cc1ccco1", "96 h LC50 (-log10 mol/L)": 3.57}, {"smiles": "O=C(Oc1ccccc1)c1ccccc1C(=O)Oc1ccccc1", "96 h LC50 (-log10 mol/L)": 6.6}, {"smiles": "Cc1ccc(S(=O)(=O)n2ccnc2)cc1", "96 h LC50 (-log10 mol/L)": 3.73}, {"smiles": "CCSCCSCC", "96 h LC50 (-log10 mol/L)": 3.4}, {"smiles": "CC(C)CCCCCOC(=O)C(C)Oc1cc(Cl)c(Cl)cc1Cl", "note": "(stereo not drawn)", "96 h LC50 (-log10 mol/L)": 4.24}, {"smiles": "O=S(Cc1ccccc1)Cc1ccccc1", "96 h LC50 (-log10 mol/L)": 3.46}, {"smiles": "CC(C)Nc1nc(Cl)nc(NC2CC2)n1", "96 h LC50 (-log10 mol/L)": 4.8}, {"smiles": "CCCCCCCCOC(=O)C(C)O", "note": "(stereo not drawn)", "96 h LC50 (-log10 mol/L)": 3.93}, {"smiles": "COc1cccc(OC)c1C", "96 h LC50 (-log10 mol/L)": 3.88}, {"smiles": "CC12CCC(C(Br)C1=O)C2(C)C", "note": "(stereo not drawn)", "96 h LC50 (-log10 mol/L)": 3.53}, {"smiles": "CC(C)=C1C=C2CC[C@@H]3[C@](C)(CCC[C@@]3(C)C(=O)O)[C@H]2CC1", "96 h LC50 (-log10 mol/L)": 5.31}, {"smiles": "C#CC(O)(c1ccccc1)c1ccccc1", "96 h LC50 (-log10 mol/L)": 4.27}, {"smiles": "O=C(O)C(Br)Br", "96 h LC50 (-log10 mol/L)": 3.5}, {"smiles": "Cc1cc(O)c([N+](=O)[O-])cc1[N+](=O)[O-]", "96 h LC50 (-log10 mol/L)": 4.79}, {"smiles": "CC(C)=CC1C(C(=O)OCc2ccc(C)cc2C)C1(C)C", "note": "(stereo not drawn)", "96 h LC50 (-log10 mol/L)": 6.67}, {"smiles": "CCN(CC)c1c([N+](=O)[O-])cc(C(F)(F)F)c(N)c1[N+](=O)[O-]", "96 h LC50 (-log10 mol/L)": 5.39}, {"smiles": "CCCSP(=O)(OCC)Oc1ccc(Br)cc1Cl", "note": "(stereo not drawn)", "96 h LC50 (-log10 mol/L)": 6.64}, {"smiles": "O[C@@H]1CCCC[C@H]1c1ccccc1", "96 h LC50 (-log10 mol/L)": 3.6}, {"smiles": "CC1(C)CC(=O)CC(=O)C1", "96 h LC50 (-log10 mol/L)": 1.09}, {"smiles": "CCCCCCCCCCCCCN", "96 h LC50 (-log10 mol/L)": 6.48}, {"smiles": "CCCCOCC(C)OC(=O)C(C)Oc1cc(Cl)c(Cl)cc1Cl", "note": "(stereo not drawn)", "96 h LC50 (-log10 mol/L)": 4.73}]}, {"system": "Tetrahymena pyriformis", "assay": "48 h IGC50 (-log10 mol/L); higher = more toxic", "values": [{"smiles": "O=Cc1ccccc1[N+](=O)[O-]", "48 h IGC50 (-log10 mol/L)": 3.17}, {"smiles": "CCOP(=O)(Cc1ccccc1)OCC", "48 h IGC50 (-log10 mol/L)": 2.57}, {"smiles": "Oc1c(I)cc(I)cc1I", "48 h IGC50 (-log10 mol/L)": 5.67}, {"smiles": "CC(C)C(O)C(C)C", "48 h IGC50 (-log10 mol/L)": 2.29}, {"smiles": "C=CC(N)=O", "48 h IGC50 (-log10 mol/L)": 2.19}, {"smiles": "Clc1cc(Cl)c(Cl)cc1Cl", "48 h IGC50 (-log10 mol/L)": 5}, {"smiles": "Cc1ccc(N)c([N+](=O)[O-])c1", "48 h IGC50 (-log10 mol/L)": 3.37}, {"smiles": "CCOC(=O)c1ccccc1", "48 h IGC50 (-log10 mol/L)": 2.99}, {"smiles": "c1ccccc1", "48 h IGC50 (-log10 mol/L)": 2.88}, {"smiles": "Brc1nc(Br)c(Br)[nH]1", "48 h IGC50 (-log10 mol/L)": 4.43}, {"smiles": "CC(=O)CC(=O)c1ccccc1", "48 h IGC50 (-log10 mol/L)": 3.57}, {"smiles": "OCC(Cl)(Cl)Cl", "48 h IGC50 (-log10 mol/L)": 2.54}, {"smiles": "CCCCOC(=O)CCCCC(=O)OCCCC", "48 h IGC50 (-log10 mol/L)": 3.79}, {"smiles": "CCCCCCCCc1ccc(N)cc1", "48 h IGC50 (-log10 mol/L)": 5.43}, {"smiles": "CN(C)c1ccc(/C=C/C=O)cc1", "48 h IGC50 (-log10 mol/L)": 3.52}, {"smiles": "Nc1cccc(OCc2ccccc2)c1", "48 h IGC50 (-log10 mol/L)": 3.88}, {"smiles": "C#CC(C)(C)O", "48 h IGC50 (-log10 mol/L)": 1.69}, {"smiles": "CCCCOC(=O)CCC(=O)OCCCC", "48 h IGC50 (-log10 mol/L)": 3.51}, {"smiles": "Cc1cc(C)c(C#N)c(=O)[nH]1", "48 h IGC50 (-log10 mol/L)": 2.3}, {"smiles": "C=CCC#N", "48 h IGC50 (-log10 mol/L)": 1.52}, {"smiles": "O=Cc1cccc([N+](=O)[O-])c1", "48 h IGC50 (-log10 mol/L)": 3.11}, {"smiles": "OCCCCl", "48 h IGC50 (-log10 mol/L)": 1.6}, {"smiles": "CC(C)(O)CCc1ccccc1", "48 h IGC50 (-log10 mol/L)": 2.93}, {"smiles": "NC(=O)c1ccccc1O", "48 h IGC50 (-log10 mol/L)": 2.76}, {"smiles": "O=Cc1ccc(Oc2ccccc2)cc1", "48 h IGC50 (-log10 mol/L)": 4.26}, {"smiles": "Cc1cc([N+](=O)[O-])ccc1N", "48 h IGC50 (-log10 mol/L)": 3.49}]}]}
